# Measured values: patent US10815237B2, “Antimicrobials and methods of making and using same” (BIOVERSYS AG, priority 2016, dated 2020)
# Columns and labels:
# [1] = system: Staphylococcus aureus (S. aureus) 11540 strain; assay: standard microdilution MIC, S. aureus; type: cell-based; details: Staphylococcus aureus
# Experimental: (§1) The in vitro activity of the compounds of the present disclosure can be determined. Antimicrobial testing is typically performed to determine the minimum inhibitory concentration (MIC). Minimum inhibitory concentrations (MICs) are determined by the microdilution method in a final volume of 100 μl according to protocols outlined by The Clinical and Laboratory Standards Institute (CLSI). Performance standards for reference strains are assessed within the same experimental design to maintain quality control. See, for example, Clinical Laboratory Standards Institute: Methods for dilution antimicrobial susceptibility tests for bacteria that grow aerobically M7-A8. Approved Standard-Eighth Edition. Wayne, Pa.: CLSI; December 2008; and Clinical Laboratory Standards Institute: Performance Standards for Antimicrobial Susceptibility Testing M100-S20; Approved Standard-Twentieth Edition. Wayne, Pa.: CLSI; June 2010.
# (§2) The compounds of the present disclosure were tested for antimicrobial activity. The Compounds 1-23 were run against Eschericia coli (E. coli) strain ATCC25922 and against Staphylococcus aureus (S. aureus) 11540 strain using a standard microdilution assay to determine minimum inhibitory concentrations (MICs). […] It will be recognized by one skilled in the art that the compounds can be assessed against other bacterial organisms and that the presentation of data for activity against Eschericia coli and Staphylococcus aureus are illustrative and in no way is intended to limit the scope of the present disclosure. The compounds of the present disclosure can be assayed against a range of other microorganisms depending upon the performance activity desired to be gathered. Furthermore, the “+” and “−” representation and the selection of a cutoff value of 16 micrograms/mL is also illustrative and in no way is intended to limit the scope of the present disclosure.
# [2] = system: Eschericia coli (E. coli) strain ATCC25922; assay: standard microdilution MIC, E. coli; type: cell-based, Escherichia coli; details: Escherichia coli
# Experimental: as §1, §2
# [3] = system: Chinese hamster ovary (CHO) cells; assay: cytotoxicity against CHO cell line (Cell Titer Blue); type: cell-based; details: Cricetulus griseus, 24 h, CHO-K1 cells, 24 hours incubation, percent cell kill
# Experimental: The compounds of the present disclosure were tested for cytotoxicity against Chinese hamster ovary (CHO) cells.
# The assay was performed by seeding CHO—K1 in F12K medium containing 13.33% Fetal Bovine Serum […]. 37.5 μl of cell suspension at a concentration of 9,500 cells/well was plated into each column of a 384-well black clear bottom assay plate with the exception of a negative (no cell) control column, and allowed to adhere for 2 hours. The culture media was then removed from the 175 cm^2 flask(s) and the cell monolayer washed with 10 mL of Phosphate Buffered Saline PBS. 3 mL of Cellstripper™ was then added and the flask was incubated for approximately 5 min at 37° C. The cells were dissociated by agitation and 7 mL of F 12K medium containing 10% FBS was added to the flask. A homogeneous cell suspension was obtained by trituration of the flask. The cells were counted with a hemocytometer by diluting an aliquot of the cell suspension in PBS with 0.4% trypan blue. Typically, a ratio of 100 μl cell suspension to 1800 μl PBS to 100 μl trypan blue was used.
# The volume of cell suspension containing the number of cells needed to seed the plate(s) (15.2 mL containing 3.8×10^6 cells) was calculated and transferred to a 50 mL centrifuge tube with the appropriate volume of media. 37.5 μl of cells were added to each well of the 384 well plate except for the negative (no cell) control column. A cytotoxicity 100-fold dilution plate was then prepared by manually pipetting 18 μl of 100% DMSO into two columns of an empty low volume dilution plate. 2 μl of a 50 mM solution of compounds 1-23 from the translation plate were manually pipetted into the corresponding columns of the 100-fold dilution plate. 10 μl of 100% DMSO was manually pipetted into all remaining columns of the 100-fold plate.
# A 4-fold cytotoxicity plate was prepared beforehand by manually pipetting 48 μl of F12K media (without DMSO and without FBS) into each well of a matrix 384 well plate. The test samples in the 100-fold dilution plate were mixed and diluted. Ten 2-fold dilutions were performed for each compound in duplicate. The 384 cannula array then transferred 2 μl to the 48 μl of media in the cytotoxicity 4-fold dilution plate. The array was then mixed and 12.5 μl of samples from the cytotoxicity 4-fold dilution plate were transferred to the 37.5 μl of cells and media. The final top concentration of samples at this point in the procedure was 50 μM with 10 subsequent 1:2 dilutions down to […]. The final DMSO concentration were 1% and the final concentration of FBS was 10%.
# Cycloheximide was run as a control. Specifically, Cycloheximide was diluted to 0.1 mM from 100 mM stock […] and was added to the cytotoxicity 100-fold plate. Upon addition to the cell plate, a range of 1 μM to 1 nM of cycloheximide was run.
# A column separate from the one (referred to above) that served as the negative control was used for cell control wells to which only media was added.
# The plates were then incubated for 24 hours at 37° C. and 5% CO2. […] The two columns used earlier to prepare the 100-fold dilution plate by pipetting 18 μl of 100% DMSO contained the samples tested at 200 μM. After the 24 hour incubation period, the 4 μl of Cell Titer blue was added to each well using a Multichannel Matrix pipettor. The plates were returned to the incubator and incubated for an additional 5 hours. Fluorescence (530 nm excitation wavelength/590 nm emission wavelength) was measured on a Wallac Victor microplate reader.
# Cell viability was assessed fluorometrically after a 5 hour incubation with resazurin (Cell Titer Blue™), which is reduced by living cells to the fluorescent resorufin.
# The average fluorescence for the negative control was determined to obtain the average blank fluorescence. The average blank fluorescence was subtracted from the fluorescence values obtained for all the test agents. The resulting values are the corrected fluorescence. […]
Structure (SMILES),MIC [1],MIC [2],IC50 [3]
C[C@H](N)CCCc1cc(Cl)c(F)c(-c2cc3cn(-c4ccc([C@@H]5CCC[C@@H](CCNC(=N)CN)N5)c(F)c4)c(=O)nc3[nH]2)c1 [Compound 13],≤ 16 µg/mL,≤ 16 µg/mL,> 100 µM
C[C@H](N)CCCc1cc(Cl)c(F)c(-c2cc3cn(-c4ccc([C@@H]5CCC[C@@H](CCNC(=N)CN)N5CCCF)cc4)c(=O)nc3[nH]2)c1 [Compound 20],≤ 16 µg/mL,≤ 16 µg/mL,> 100 µM
N=C(CN)NCC[C@@H]1CCC[C@@H](c2ccc(-n3cc4cc(-c5cc(CCC[C@@H](N)C6CC6)cc(C(F)(F)F)c5)[nH]c4nc3=O)cc2)N1CCCF [Compound 42],≤ 16 µg/mL,≤ 16 µg/mL,> 100 µM
C=C[C@@H](CCNC(=N)CN1CCOCC1)NCc1ccc(-n2cc3cc(-c4cc(CCC[C@H](C)N)cc(Cl)c4F)[nH]c3nc2=O)cc1 [Compound 1],–,–,> 100 µM
C=C[C@H](N)CCCc1cc(-c2cc3cn(-c4ccc([C@@H]5CCC[C@@H](CCNC(=N)CN)N5CCCF)cc4)c(=O)nc3[nH]2)cc(C(F)(F)F)c1 [Compound 56],≤ 16 µg/mL,≤ 16 µg/mL,> 100 µM
C=C[C@H](N)CCCc1cc(Cl)c(F)c(-c2cc3cn(-c4ccc([C@@H]5CCC[C@@H](CCNC(=N)CN)N5CCCF)c(F)c4)c(=O)nc3[nH]2)c1 [Compound 66],≤ 16 µg/mL,≤ 16 µg/mL,37.3 µM
C=C[C@H](N)CCCc1cc(Cl)c(F)c(-c2cc3cn(-c4ccc([C@@H]5CCC[C@@H](CCNC(=N)CN)N5CCCF)cc4)c(=O)nc3[nH]2)c1 [Compound 64],≤ 16 µg/mL,≤ 16 µg/mL,> 100 µM
C[C@H](N)CCCc1cc(Cl)c(F)c(-c2cc3cn(-c4ccc([C@@H]5CCC[C@@H](CCNC(=N)CN)N5CCCF)c(F)c4)c(=O)nc3[nH]2)c1 [Compound 46],≤ 16 µg/mL,≤ 16 µg/mL,> 100 µM
N=C(CN)NCC[C@@H]1CCC[C@@H](c2ccc(-n3cc4cc(-c5cc(CCC[C@@H](N)C6CC6)cc(C(F)(F)F)c5)[nH]c4nc3=O)cc2F)N1CCCF [Compound 43],≤ 16 µg/mL,≤ 16 µg/mL,> 100 µM
C[C@H](N)CCCc1cc(Cl)c(F)c(-c2cc3cn(-c4ccc(CN[C@@H](CO)CCNC(=N)CN5CCSCC5)cc4)c(=O)nc3[nH]2)c1 [Compound 4],≤ 16 µg/mL,≤ 16 µg/mL,> 100 µM
C[C@H](N)CCCc1cc(Cl)c(F)c(-c2cc3cn(-c4ccc([C@@H]5CCC[C@@H](CNC(=N)CN)N5)cc4)c(=O)nc3[nH]2)c1 [Compound 68],≤ 16 µg/mL,≤ 16 µg/mL,85.3 µM
CSc1cc(-n2cc3cc(-c4cc(CCC[C@@H](N)C5CC5)cc(C(F)(F)F)c4)[nH]c3nc2=O)cc(F)c1[C@@H]1CCC[C@@H](CCNC(=N)CN)N1CCCF [Compound 54],≤ 16 µg/mL,> 16 µg/mL,> 100 µM
C=C[C@@H](CCNC(=N)CN1CCOCC1)NCc1ccc(-n2cc3cc(-c4cc(CCC[C@H](C)N)cc(Cl)c4F)[nH]c3nc2=O)cc1 [Compound 6],≤ 16 µg/mL,≤ 16 µg/mL,–

# Continued, in another order:
MIC [1],MIC [2],Structure (SMILES),IC50 [3]
≤ 16 µg/mL,≤ 16 µg/mL,C=C[C@H](N)CCCc1cc(Cl)c(F)c(-c2cc3cn(-c4cc(F)c([C@@H]5CCC[C@@H](CCNC(=N)CN)N5CCCF)c(SC)c4)c(=O)nc3[nH]2)c1 [Compound 65],5.2 µM
≤ 16 µg/mL,≤ 16 µg/mL,CSc1cc(-n2cc3cc(-c4cc(CCC[C@H](C)N)cc(Cl)c4F)[nH]c3nc2=O)ccc1[C@@H]1CCC[C@@H](CCNC(=N)CN)N1CCCF [Compound 49],21.1 µM
≤ 16 µg/mL,≤ 16 µg/mL,C[C@H](N)CCCc1cc(Cl)c(F)c(-c2cc3cn(-c4ccc([C@H](C)NCCCNC(=N)CN)cc4)c(=O)nc3[nH]2)c1 [Compound 9],> 100 µM
≤ 16 µg/mL,≤ 16 µg/mL,Cc1c2cc(-c3cc(CCC[C@H](C)N)cc(Cl)c3F)[nH]c2nc(=O)n1-c1ccc([C@@H]2CCC[C@@H](CCNC(=N)CN)N2)cc1 [Compound 69],> 100 µM
≤ 16 µg/mL,≤ 16 µg/mL,C[C@H](N)CCCc1cc(-c2cc3cn(-c4ccc([C@@H]5CCC[C@@H](CCNC(=N)CN)N5)cc4)c(=O)nc3[nH]2)cc(C(F)(F)F)c1 [Compound 17],> 100 µM
≤ 16 µg/mL,≤ 16 µg/mL,C[C@H](N)CCCc1cc(Cl)c(F)c(-c2cc3cn(-c4ccc([C@@H]5CCC[C@@H](CCNC(=N)[C@H](N)CO)N5)cc4)c(=O)nc3[nH]2)c1 [Compound 58],> 100 µM
≤ 16 µg/mL,≤ 16 µg/mL,CNCC(=N)NCC[C@@H]1CCC[C@@H](c2ccc(-n3cc4cc(-c5cc(CCC[C@H](C)N)cc(Cl)c5F)[nH]c4nc3=O)cc2)N1 [Compound 67],> 100 µM
≤ 16 µg/mL,≤ 16 µg/mL,C[C@H](N)CCCc1cc(-c2cc3cn(-c4ccc([C@@H]5CCC[C@@H](CCNC(=N)CN)N5CCCF)cc4)c(=O)nc3[nH]2)cc(C(F)(F)F)c1 [Compound 23],> 100 µM
≤ 16 µg/mL,≤ 16 µg/mL,N=C(CN)NCC[C@@H]1CCC[C@@H](c2ccc(-n3cc4cc(-c5cc(CCC[C@@H](N)C6CC6)cc(Cl)c5F)[nH]c4nc3=O)cc2)N1 [Compound 12],> 100 µM
≤ 16 µg/mL,≤ 16 µg/mL,C[C@H](N)CCCc1cc(Cl)c(F)c(-c2cc3cn(-c4ccc([C@@H]5CCC[C@@H](CCNC(=N)[C@@H](N)CO)N5)cc4)c(=O)nc3[nH]2)c1 [Compound 57],> 100 µM
≤ 16 µg/mL,≤ 16 µg/mL,C[C@H](N)CCCc1cc(-c2cc3cn(-c4ccc([C@@H]5CCC[C@@H](CCNC(=N)CN)N5CCCF)c(F)c4)c(=O)nc3[nH]2)cc(C(F)(F)F)c1 [Compound 44],> 100 µM
≤ 16 µg/mL,≤ 16 µg/mL,CSc1cc(-n2cc3cc(-c4cc(CCC[C@H](C)N)cc(Cl)c4F)[nH]c3nc2=O)ccc1[C@@H]1CCC[C@@H](CCNC(=N)CN)N1 [Compound 10],> 100 µM
≤ 16 µg/mL,> 16 µg/mL,CSc1cc(-n2cc3cc(-c4cc(CCC[C@H](C)N)cc(C(F)(F)F)c4)[nH]c3nc2=O)cc(F)c1[C@@H]1CCC[C@@H](CCNC(=N)CN)N1CCCF [Compound 51],> 100 µM
≤ 16 µg/mL,≤ 16 µg/mL,C[C@H](N)CCCc1cc(-c2cc3cn(-c4ccc([C@@H]5CCC[C@@H](CCNC(=N)CN)N5)cc4)c(=O)nc3[nH]2)ccc1C(F)(F)F [Compound 21],> 100 µM
